Reference: patent US11591341B2 (ALIGOS THERAPEUTICS, INC., priority 2019, dated 2023)

Tested on: HBV
Assay: HBV-DNA Antiviral Assay Using HepG2.117 Cells (intracellular HBV DNA by qPCR)
Format: cell-based, hepatitis B virus (genotype D)
Settings: Hepatitis B virus, HepG2.117
Outline: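 HepG2.117 cells (genotype D HBV, Tet-off) were induced by doxycycline withdrawal and treated for 3 days with 9 concentrations in 4-fold dilution, 2% DMSO final. Intracellular HBV DNA was measured by qPCR against a standard curve, with ATPlite viability read in parallel. EC50, EC90 and CC50 came from fits against the DMSO control.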

Compound	EC50
CNC(=O)c1ccc(-n2c(C(=O)NCc3ccccc3)c3n(c2=O)CCN(C(=O)c2ccc(Br)c(Cl)c2)C3)cc1 [Example 36, N-benzyl-7-(4-bromo-3-chloro-benzoyl)-2-[4-(methylcarbamoyl)phenyl]-3-oxo-6,8-dihydro-5H-imidazo[1,5-a]pyrazine-1-carboxamide]	> 5 µM
COc1ccc(CNC(=O)c2c3n(c(=O)n2-c2ccccc2)CCN(C(=O)c2ccc(Br)c(Cl)c2)C3)c(C)c1 [Example 39, 7-(4-bromo-3-chloro-benzoyl)-N-[(4-methoxy-2-methyl-phenyl)methyl]-3-oxo-2-phenyl-6,8-dihydro-5H-imidazo[1,5-a]pyrazine-1-carboxamide]	0.1 to 0.5 µM
COc1ccc(CNC(=O)c2c3n(c(=O)n2-c2ccccc2)CCN(C(=O)c2ccc(Br)c(Cl)c2)C3)c(F)c1 [Example 40, 7-(4-bromo-3-chloro-benzoyl)-N-[(2-fluoro-4-methoxy-phenyl)methyl]-3-oxo-2-phenyl-6,8-dihydro-5H-imidazo[1,5-a]pyrazine-1-carboxamide]	0.1 to 0.5 µM
COc1cccc(-n2c(C(=O)NCc3ccccc3)c3n(c2=O)CCN(C(=O)c2ccc(Br)c(Cl)c2)C3)c1 [Example 41, N-benzyl-7-(4-bromo-3-chloro-benzoyl)-2-(3-methoxyphenyl)-3-oxo-6,8-dihydro-5H-imidazo[1,5-a]pyrazine-1-carboxamide]	0.5 to 5 µM
N#Cc1cccc(-n2c(C(=O)NCc3ccccc3)c3n(c2=O)CCN(C(=O)c2ccc(Br)c(Cl)c2)C3)c1 [Example 44, N-benzyl-7-(4-bromo-3-chloro-benzoyl)-2-(3-cyanophenyl)-3-oxo-6,8-dihydro-5H-imidazo[1,5-a]pyrazine-1-carboxamide]	0.5 to 5 µM
CS(=O)(=O)c1ccc(-n2c(C(=O)NCc3ccccc3)c3n(c2=O)CCN(C(=O)c2ccc(Br)c(Cl)c2)C3)cc1 [Example 45, N-benzyl-7-(4-bromo-3-chloro-benzoyl)-2-(4-methylsulfonylphenyl)-3-oxo-6,8-dihydro-5H-imidazo[1,5-a]pyrazine-1-carboxamide]	0.5 to 5 µM
CS(=O)(=O)c1cccc(-n2c(C(=O)NCc3ccccc3)c3n(c2=O)CCN(C(=O)c2ccc(Br)c(Cl)c2)C3)c1 [Example 46, N-benzyl-7-(4-bromo-3-chloro-benzoyl)-2-(3-methylsulfonylphenyl)-3-oxo-6,8-dihydro-5H-imidazo[1,5-a]pyrazine-1-carboxamide]	> 5 µM
NS(=O)(=O)c1cccc(-n2c(C(=O)NCc3ccccc3)c3n(c2=O)CCN(C(=O)c2ccc(Br)c(Cl)c2)C3)c1 [Example 47, N-benzyl-7-(4-bromo-3-chloro-benzoyl)-3-oxo-2-(3-sulfamoylphenyl)-6,8-dihydro-5H-imidazo[1,5-a]pyrazine-1-carboxamide]	> 5 µM
CNC(=O)c1cccc(-n2c(C(=O)NCc3ccccc3)c3n(c2=O)CCN(C(=O)c2ccc(Br)c(Cl)c2)C3)c1 [Example 48, N-benzyl-7-(4-bromo-3-chloro-benzoyl)-2-[3-(methylcarbamoyl)phenyl]-3-oxo-6,8-dihydro-5H-imidazo[1,5-a]pyrazine-1-carboxamide]	0.5 to 5 µM
O=C(NCc1ccccc1)c1c2n(c(=O)n1-c1cccnc1)CCN(C(=O)c1ccc(Cl)c(Cl)c1)C2 [Example 49, N-benzyl-7-(3,4-dichlorobenzoyl)-3-oxo-2-(3-pyridyl)-6,8-dihydro-5H-imidazo[1,5-a]pyrazine-1-carboxamide]	> 5 µM
COc1ccc(-n2c(C(=O)NCc3ccccc3)c3n(c2=O)CCN(C(=O)c2ccc(Cl)c(Cl)c2)C3)cc1Cl [Example 50, N-benzyl-2-(3-chloro-4-methoxy-phenyl)-7-(3,4-dichlorobenzoyl)-3-oxo-6,8-dihydro-5H-imidazo[1,5-a]pyrazine-1-carboxamide]	> 5 µM
CCOc1ccc(-n2c(C(=O)NCc3ccccc3)c3n(c2=O)CCN(C(=O)c2ccc(Cl)c(Cl)c2)C3)cc1 [Example 51, N-benzyl-7-(3,4-dichlorobenzoyl)-2-(4-ethoxyphenyl)-3-oxo-6,8-dihydro-5H-imidazo[1,5-a]pyrazine-1-carboxamide]	0.5 to 5 µM
CC(C)Oc1ccc(-n2c(C(=O)NCc3ccccc3)c3n(c2=O)CCN(C(=O)c2ccc(Cl)c(Cl)c2)C3)cc1 [Example 52]	0.5 to 5 µM
COc1ccc(-n2c(C(=O)NCc3ccnnc3)c3n(c2=O)CCN(C(=O)c2ccc(Cl)c(Cl)c2)C3)cc1 [Example 53, 7-(3,4-dichlorobenzoyl)-2-(4-methoxyphenyl)-3-oxo-N-(pyridazin-4-ylmethyl)-6,8-dihydro-5H-imidazo[1,5-a]pyrazine-1-carboxamide]	> 5 µM
COc1ccc(-n2c(C(=O)NCc3ccccc3)c3n(c2=O)CCN(C(=O)c2ccc(Cl)c(Cl)c2)C3)cc1 [Example 54, N-benzyl-7-(3,4-dichlorobenzoyl)-2-(4-methoxyphenyl)-3-oxo-6,8-dihydro-5H-imidazo[1,5-a]pyrazine-1-carboxamide]	0.5 to 5 µM
COc1ccc(-n2c(C(=O)NCc3ccccc3)c3n(c2=O)CCN(C(=O)c2cc4c(C)cccc4[nH]2)C3)cc1 [Example 55, N-benzyl-2-(4-methoxyphenyl)-7-(4-methyl-1H-indole-2-carbonyl)-3-oxo-6,8-dihydro-5H-imidazo[1,5-a]pyrazine-1-carboxamide]	0.5 to 5 µM
COc1ccc(-n2c(C(=O)NCc3ccccc3)c3n(c2=O)CCN(C(=O)c2cc4c(Cl)cccc4[nH]2)C3)cc1 [Example 56, N-benzyl-7-(4-chloro-1H-indole-2-carbonyl)-2-(4-methoxyphenyl)-3-oxo-6,8-dihydro-H-imidazo[1,5-a]pyrazine-1-carboxamide]	0.1 to 0.5 µM
COc1ccc(-n2c(C(=O)NCc3ccncc3)c3n(c2=O)CCN(C(=O)c2ccc(Cl)c(Cl)c2)C3)cc1 [Example 57, 7-(3,4-dichlorobenzoyl)-2-(4-methoxyphenyl)-3-oxo-N-(4-pyridylmethyl)-6,8-dihydro-5H-imidazo[1,5-a]pyrazine-1-carboxamide]	> 5 µM
COc1ccc(-n2c(C(=O)NCC(C)C)c3n(c2=O)CCN(C(=O)c2ccc(Cl)c(Cl)c2)C3)cc1 [Example 58, 7-(3,4-dichlorobenzoyl)-N-isobutyl-2-(4-methoxyphenyl)-3-oxo-6,8-dihydro-5H-imidazo[1,5-a]pyrazine-1-carboxamide]	> 5 µM
COc1ccc(-n2c(C(=O)NCc3ccccc3)c3n(c2=O)CCN(C(=O)c2ccc(Cl)c(Cl)c2)C3)c(Cl)c1 [Example 59, N-benzyl-2-(2-chloro-4-methoxy-phenyl)-7-(3,4-dichlorobenzoyl)-3-oxo-6,8-dihydro-5H-imidazo[1,5-a]pyrazine-1-carboxamide]	0.5 to 5 µM
COc1ccc(-n2c(C(=O)NCc3ccc(F)cc3)c3n(c2=O)CCN(C(=O)c2ccc(Br)c(Cl)c2)C3)cc1 [Example 60, 7-(4-bromo-3-chloro-benzoyl)-N-[(4-fluorophenyl)methyl]-2-(4-methoxyphenyl)-3-oxo-6,8-dihydro-5H-imidazo[1,5-a]pyrazine-1-carboxamide]	0.1 to 0.5 µM
COc1ccc(-n2c(C(=O)NCc3ccc(F)cc3)c3n(c2=O)CCN(C(=O)c2ccc(Cl)c(Cl)c2)C3)cc1 [Example 61, 7-(3,4-dichlorobenzoyl)-N-[(4-fluorophenyl)methyl]-2-(4-methoxyphenyl)-3-oxo-6,8-dihydro-5H-imidazo[1,5-a]pyrazine-1-carboxamide]	0.5 to 5 µM
COc1ccc(-n2c(C(=O)NCc3cccc(C#N)c3)c3n(c2=O)CCN(C(=O)c2ccc(Br)c(Cl)c2)C3)cc1 [Example 62, 7-(4-bromo-3-chloro-benzoyl)-N-[(3-cyanophenyl)methyl]-2-(4-methoxyphenyl)-3-oxo-6,8-dihydro-5H-imidazo[1,5-a]pyrazine-1-carboxamide]	0.5 to 5 µM
COc1ccc(-n2c(C(=O)NCc3cccc(C#N)c3)c3n(c2=O)CCN(C(=O)c2ccc(Cl)c(Cl)c2)C3)cc1 [Example 63, N-[(3-cyanophenyl)methyl]-7-(3,4-dichlorobenzoyl)-2-(4-methoxyphenyl)-3-oxo-6,8-dihydro-5H-imidazo[1,5-a]pyrazine-1-carboxamide]	0.5 to 5 µM
COc1ccc(-n2c(C(=O)NCc3cccnc3)c3n(c2=O)CCN(C(=O)c2ccc(Cl)c(Cl)c2)C3)cc1 [Example 64, 7-(3,4-dichlorobenzoyl)-2-(4-methoxyphenyl)-3-oxo-N-(3-pyridylmethyl)-6,8-dihydro-5H-imidazo[1,5-a]pyrazine-1-carboxamide]	> 5 µM
COc1ccc(-n2c(C(=O)NCc3ccc4occc4c3)c3n(c2=O)CCN(C(=O)c2ccc(Cl)c(Cl)c2)C3)cc1 [Example 66, N-(benzofuran-5-ylmethyl)-7-(3,4-dichlorobenzoyl)-2-(4-methoxyphenyl)-3-oxo-6,8-dihydro-5H-imidazo[1,5-a]pyrazine-1-carboxamide]	0.5 to 5 µM
COc1ccc(-n2c(C(=O)NCc3ccc4oc(C)nc4c3)c3n(c2=O)CCN(C(=O)c2ccc(Cl)c(Cl)c2)C3)cc1 [Example 67, 7-(3,4-dichlorobenozyl)-2-(4-methoxyphenyl)-N-[(2-methyl-1,3-benzoxazol-5-yl)methyl]-3-oxo-6,8-dihydro-5H-imidazo[1,5-a]pyrazine-1-carboxamide]	0.5 to 5 µM
NS(=O)(=O)c1ccc(-n2c(C(=O)NCc3ccccc3)c3n(c2=O)CCN(C(=O)c2ccc(Br)c(Cl)c2)C3)cc1 [Example 71, N-benzyl-7-(4-bromo-3-chloro-benzoyl)-3-oxo-2-(4-sulfamoylphenyl)-6,8-dihydro-5H-imidazo[1,5-a]pyrazine-1-carboxamide]	> 5 µM
COc1ccc(-n2c(-c3ccccc3)c3n(c2=O)CCN(C(=O)c2ccc(Cl)c(Cl)c2)C3)cc1 [Example 74, 7-(3,4-dichlorobenzoyl)-2-(4-methoxyphenyl)-1-phenyl-6,8-dihydro-5H-imidazo[1,5-a]pyrazin-3-one]	> 5 µM
O=C(NCc1ccccc1)c1c2n(c(=O)n1-c1ccccn1)CCN(C(=O)c1ccc(Cl)c(Cl)c1)C2 [Example 78, N-benzyl-7-(3,4-dichlorobenzoyl)-3-oxo-2-(2-pyridyl)-6,8-dihydro-5H-imdiazo[1,5-a]pyrazine-1-carboxamide]	> 5 µM
